The structures appear in SMILES notation. The source made the active and inactive calls. The calls are words filed in the database; no cut-off is given here.

Here are results for 6 molecules from ChEMBL document CHEMBL1136299, “Adenosine-anchored triphosphate subsite probing: distinguishing between HER-2 and HER-4 tyrosine protein kinases” (Bioorg Med Chem Lett, 2003).

Assay [1] has as its target Receptor tyrosine-protein kinase erbB-4 (Homo sapiens) (UniProt Q15303). Nature of the assay: Ratio of HER-4 inhibition by diastereomers.
The target in assay [2] is Receptor tyrosine-protein kinase erbB-2 (Homo sapiens) (UniProt P04626). As to the kind of experiment: Ratio of HER-2 inhibition by diastereomers.
For assay [3], the target named is Receptor tyrosine-protein kinase erbB-4 (Homo sapiens) (UniProt Q15303). As to the kind of experiment: Ratio of HER-4 inhibition by diastereomers (inactive).
Chain of Receptor tyrosine-protein kinase erbB-4 (Homo sapiens) (Q15303 whole entry): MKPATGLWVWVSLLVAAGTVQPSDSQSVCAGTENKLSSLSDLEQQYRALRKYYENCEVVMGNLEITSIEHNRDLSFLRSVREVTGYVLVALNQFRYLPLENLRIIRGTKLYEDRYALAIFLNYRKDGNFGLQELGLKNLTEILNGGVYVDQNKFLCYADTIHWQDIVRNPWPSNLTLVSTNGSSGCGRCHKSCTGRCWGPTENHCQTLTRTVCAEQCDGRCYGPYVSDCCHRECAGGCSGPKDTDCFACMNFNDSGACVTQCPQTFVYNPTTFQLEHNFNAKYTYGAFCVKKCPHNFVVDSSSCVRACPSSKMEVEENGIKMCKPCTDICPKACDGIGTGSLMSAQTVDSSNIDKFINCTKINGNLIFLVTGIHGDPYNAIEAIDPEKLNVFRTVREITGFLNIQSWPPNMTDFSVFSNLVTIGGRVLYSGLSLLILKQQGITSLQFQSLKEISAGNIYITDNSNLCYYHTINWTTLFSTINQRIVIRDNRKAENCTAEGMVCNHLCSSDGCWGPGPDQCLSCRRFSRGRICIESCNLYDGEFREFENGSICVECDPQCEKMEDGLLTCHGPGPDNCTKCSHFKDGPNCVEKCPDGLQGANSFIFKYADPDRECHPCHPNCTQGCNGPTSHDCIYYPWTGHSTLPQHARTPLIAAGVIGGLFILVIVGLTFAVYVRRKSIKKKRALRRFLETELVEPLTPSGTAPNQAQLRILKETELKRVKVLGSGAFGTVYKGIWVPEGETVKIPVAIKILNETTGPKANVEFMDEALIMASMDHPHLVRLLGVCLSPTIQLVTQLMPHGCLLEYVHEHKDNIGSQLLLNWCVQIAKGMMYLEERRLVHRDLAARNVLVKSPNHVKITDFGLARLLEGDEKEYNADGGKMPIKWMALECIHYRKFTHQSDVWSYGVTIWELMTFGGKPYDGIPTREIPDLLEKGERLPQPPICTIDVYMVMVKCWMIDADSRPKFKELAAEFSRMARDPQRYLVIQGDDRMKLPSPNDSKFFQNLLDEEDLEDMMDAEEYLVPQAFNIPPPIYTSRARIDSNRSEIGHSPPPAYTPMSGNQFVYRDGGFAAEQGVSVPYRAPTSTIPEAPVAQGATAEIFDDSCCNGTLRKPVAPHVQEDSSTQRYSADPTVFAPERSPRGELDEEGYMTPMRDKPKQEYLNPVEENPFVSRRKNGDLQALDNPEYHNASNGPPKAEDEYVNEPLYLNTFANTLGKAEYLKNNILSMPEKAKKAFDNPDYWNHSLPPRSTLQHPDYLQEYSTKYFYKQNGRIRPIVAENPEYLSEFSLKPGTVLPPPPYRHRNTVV

Chain of Receptor tyrosine-protein kinase erbB-2 (Homo sapiens) (P04626 whole entry): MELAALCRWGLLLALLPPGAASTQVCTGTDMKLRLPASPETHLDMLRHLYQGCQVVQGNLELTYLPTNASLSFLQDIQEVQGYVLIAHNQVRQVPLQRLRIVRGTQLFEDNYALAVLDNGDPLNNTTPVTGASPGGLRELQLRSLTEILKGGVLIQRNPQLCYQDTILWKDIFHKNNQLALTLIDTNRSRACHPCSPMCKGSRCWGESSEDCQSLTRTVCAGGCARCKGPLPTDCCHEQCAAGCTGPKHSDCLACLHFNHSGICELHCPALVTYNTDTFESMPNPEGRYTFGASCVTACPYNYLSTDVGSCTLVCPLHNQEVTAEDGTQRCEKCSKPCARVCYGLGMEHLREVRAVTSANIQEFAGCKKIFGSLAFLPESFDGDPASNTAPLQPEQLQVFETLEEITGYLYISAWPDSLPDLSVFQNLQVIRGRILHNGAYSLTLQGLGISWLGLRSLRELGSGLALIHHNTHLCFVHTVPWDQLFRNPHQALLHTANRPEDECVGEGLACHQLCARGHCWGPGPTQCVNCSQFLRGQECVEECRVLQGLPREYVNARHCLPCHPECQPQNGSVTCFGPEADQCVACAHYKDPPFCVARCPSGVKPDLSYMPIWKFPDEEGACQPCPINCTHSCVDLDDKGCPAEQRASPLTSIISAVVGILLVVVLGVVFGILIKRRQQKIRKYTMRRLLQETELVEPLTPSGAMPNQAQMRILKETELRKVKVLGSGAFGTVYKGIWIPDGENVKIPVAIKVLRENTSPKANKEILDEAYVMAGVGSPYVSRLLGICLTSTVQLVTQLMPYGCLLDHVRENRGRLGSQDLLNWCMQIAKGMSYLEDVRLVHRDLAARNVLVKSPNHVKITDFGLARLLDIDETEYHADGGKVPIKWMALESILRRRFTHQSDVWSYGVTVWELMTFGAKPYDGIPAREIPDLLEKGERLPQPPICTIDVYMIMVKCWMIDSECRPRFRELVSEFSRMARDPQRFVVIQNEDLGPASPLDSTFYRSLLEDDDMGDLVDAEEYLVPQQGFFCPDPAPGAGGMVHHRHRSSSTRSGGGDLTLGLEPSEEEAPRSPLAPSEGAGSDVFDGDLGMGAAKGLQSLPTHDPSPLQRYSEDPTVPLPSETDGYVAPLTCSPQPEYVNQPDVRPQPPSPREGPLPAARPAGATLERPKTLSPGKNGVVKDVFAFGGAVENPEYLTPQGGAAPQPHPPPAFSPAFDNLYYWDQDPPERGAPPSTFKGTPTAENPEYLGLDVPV

As to `CCOC1CC2(C[C@H]3O[C@@H](n4cnc5c(N)ncnc54)[C@H](O)[C@@H]3O)OC1(C(=O)OC)C(=O)N2C` (some centres not stated), the Selectivity was determined as 1.6 in assay [1] and 34.4 in assay [2].
For the molecule `CCOC1CC2(C[C@H]3O[C@@H](n4cnc5c(NC(=O)OCc6ccccc6)ncnc54)[C@H](O)[C@@H]3O)OC1(C(=O)OC)C(=O)N2C.CCOC1C[C@@]2(C[C@H]3O[C@@H](n4cnc5c(NC(=O)OCc6ccccc6)ncnc54)[C@H](O)[C@@H]3O)OC1(C(=O)OC)C(=O)N2C` (some centres not stated), the Selectivity in assay [2] was determined as 3.1. The Selectivity result in assay [3] was “inactive”.
As to `CN1C(=O)C2(C(N)=O)O[C@@]1(C)CC2OC(=O)NC[C@H]1O[C@@H](n2cnc3c(N)ncnc32)[C@H](O)[C@@H]1O.CN1CC2(C(N)=O)O[C@]1(C)C(=O)C2OC(=O)NC[C@H]1O[C@@H](n2cnc3c(N)ncnc32)[C@H](O)[C@@H]1O` (some centres not stated), the results for the Selectivity in assay [1] and in assay [2] were 1.2 and 54.7, respectively.
The like results for `CCOC1CC2OC1(C(=O)OC)C(=O)N2C[C@H]1O[C@@H](n2cnc3c(N)ncnc32)[C@H](O)[C@@H]1O.CCOC1C[C@@]2(C)OC1(C(=O)OC)C(=O)N2C[C@H]1O[C@@H](n2cnc3c(N)ncnc32)[C@H](O)[C@@H]1O` (some centres not stated) were, in that order, 1.4 and 4.8.
For the molecule `CCOC1CC2(C)OC1(C(=O)OC)C(=O)N2C[C@H]1O[C@@H](n2cnc3c(NC(=O)OCc4ccccc4)ncnc32)[C@H](O)[C@@H]1O.CCOC1C[C@@]2(C)OC1(C(=O)OC)C(=O)N2C[C@H]1O[C@@H](n2cnc3c(NC(=O)OCc4ccccc4)ncnc32)[C@H](O)[C@@H]1O` (some centres not stated), the Selectivity in assay [2] was 1.7. Moreover, the Selectivity entry in assay [3] was “inactive”.
For the molecule `CCOC1CC2(C)OC1(C(=O)NC[C@H]1O[C@@H](n3cnc4c(N)ncnc43)[C@H](O)[C@@H]1O)C(=O)N2C` (some centres not stated), the Selectivity in assay [2] stood at 9.1. In addition, in assay [3], the Selectivity entry was “inactive”.
